Patent US8883782B2, “Spiro-tetracyclic ring compounds as beta-secretase modulators and methods of use” (Amgen Inc., priority 2010, dated 2014)
Like-named read-outs stand apart in the source and are kept apart here.

What was measured:
[1] = target: Beta Secretase enzyme (BACE) (Homo sapiens, UniProt P56817); experiment: In vitro enzymatic BACE FRET (fluorescence resonance energy transfer) assay; type: biochemical; details: average IC50, enzyme assay; read-out: BACE 1 FRET assay
Method in brief: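 Fluorescence read after Tris quench to neutral pH. Reaction: 50 nM fluorophore/quencher peptide substrate, 1 h, in 0.05 M acetate pH 4.2, 10% DMSO final, 100 uM genapol.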

[2] = system: Aβ40 in conditioned medium of cells stably expressing Amyloid Precursor Protein (APP); experiment: In vitro BACE cell-based assay (Aβ40 in conditioned medium, sandwich ELISA); details: Homo sapiens, read-out: HEK cell assay
Method in brief: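 Step two: 10-point compound titration added, starting 100 μM or 10 μM, 0.1% DMSO. Step three: medium Aβ40 measured by ELISA, capture 3 h and detection 2 h at 4° C, TRF read.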

[3] = HEK293, average IC50, HEK cells

Sequence of Beta Secretase enzyme (BACE) (P56817 46-501, species assumed): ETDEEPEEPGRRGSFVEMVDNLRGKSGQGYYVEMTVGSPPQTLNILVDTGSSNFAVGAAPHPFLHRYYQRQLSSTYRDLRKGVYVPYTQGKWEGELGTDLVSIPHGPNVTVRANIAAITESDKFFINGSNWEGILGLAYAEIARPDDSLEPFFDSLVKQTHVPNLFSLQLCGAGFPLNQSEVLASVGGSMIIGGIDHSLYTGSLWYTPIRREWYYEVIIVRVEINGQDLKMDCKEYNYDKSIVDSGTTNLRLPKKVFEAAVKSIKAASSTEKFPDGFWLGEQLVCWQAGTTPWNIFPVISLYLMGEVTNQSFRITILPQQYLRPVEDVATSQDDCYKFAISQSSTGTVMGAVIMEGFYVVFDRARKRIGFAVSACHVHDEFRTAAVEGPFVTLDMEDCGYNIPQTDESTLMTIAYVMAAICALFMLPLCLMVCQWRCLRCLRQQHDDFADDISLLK

Structure (SMILES) | IC50 [1] [nM] | IC50 ([2]; HEK293, average IC50) [nM] | IC50 [2, 3] [nM]
CC1(COc2cc(F)c3c(c2)[C@]2(COC(N)=N2)c2cc(-c4cncc(Cl)c4)ccc2O3)COC1 [Example 206, (4S)-7′-(5-chloro-3-pyridinyl)-4′-fluoro-2′-((3-methyl-3-oxetanyl)methoxy)spiro[1,3-oxazole-4,9′-xanthen]-2-amine] | 0.7 | 2.4 | –
NC1=N[C@]2(CO1)c1cc(-c3cccnc3F)c(F)cc1Oc1ncc(-c3ccc(F)nc3)cc12 [Example 897, (5R)-8-fluoro-7-(2-fluoro-3-pyridinyl)-3-(6-fluoro-3-pyridinyl)spiro[chromeno[2,3-b]pyridine-5,4′-[1,3]oxazol]-2′-amine] | 175 | – | 6360
CC(C)(C#N)COc1ccc2c(c1)[C@@]1(COC(N)=N1)c1cc(Br)cc(F)c1O2 [Example 442, 3-(((4S)-2-amino-7′-bromo-5′-fluorospiro[1,3-oxazole-4,9′-xanthen]-2′-yl)oxy)-2,2-dimethylpropanenitrile] | 152 | – | 1810
CC1(COc2cc3c(cc2F)Oc2ccc(-c4ccnc(Cl)c4)cc2[C@@]32COC(N)=N2)COC1 [Example 325, (4S)-7′-(2-chloro-4-pyridinyl)-3′-fluoro-2′-((3-methyl-3-oxetanyl)methoxy)spiro[1,3-oxazole-4,9′-xanthen]-2-amine] | 50.2 | 255 | –
NC1=N[C@]2(CO1)c1cc(-c3cccnc3F)ccc1Oc1c2cc(Br)nc1F [Example 736, (5R)-3-bromo-1-fluoro-7-(2-fluoro-3-pyridinyl)spiro[chromeno[2,3-c]pyridine-5,4′-[1,3]oxazol]-2′-amine] | 2090 | ≥ 10000 | –
C[C@@H]1CN(c2cc(F)c3c(c2)[C@]2(COC(N)=N2)c2cc(-c4cncc(F)c4)ccc2O3)C[C@H](C)O1 [Example 274, (4S)-2′-((2R,6S)-2,6-dimethyl-4-morpholinyl)-4′-fluoro-7′-(5-fluoro-3-pyridinyl)spiro[1,3-oxazole-4,9′-xanthen]-2-amine] | 2.9 | 10.4 | –
Cc1cc(-c2cc(F)c3c(c2)[C@]2(CSC(N)=N2)c2cc(-c4cccnc4F)ccc2O3)ccn1 [Example 1072, (4S)-4′-fluoro-7′-(2-fluoro-3-pyridinyl)-2′-(2-methyl-4-pyridinyl)spiro[1,3-thiazole-4,9′-xanthen]-2-amine] | 3.3 | 29 | –
COc1ccc2c(c1)[C@@]1(COC(N)=N1)c1cc(C3(F)COC3)cc(F)c1O2 [Example 709, (S)-4′-fluoro-2′-(3-fluorooxetan-3-yl)-7′-methoxy-5H-spiro[oxazole-4,9′-xanthen]-2-amine] | 4560 | – | ≥ 10000
NC1=N[C@@]2(CO1)c1cc(-c3cncc(F)c3)ccc1Oc1c(F)cc(N3CC4CCC(C3)O4)cc12 [Example 283, (4S)-4′-fluoro-7′-(5-fluoro-3-pyridinyl)-2′-(8-oxa-3-azabicyclo[3.2.1]oct-3-yl)spiro[1,3-oxazole-4,9′-xanthen]-2-amine] | 0.4 | 3.2 | –
N#Cc1cccc(-c2ccc3c(c2)[C@@]2(COC(N)=N2)c2cc(N4CCC(F)(F)C4)nc(F)c2O3)c1 [Example 920, 3-((5S)-2′-amino-3-(3,3-difluoro-1-pyrrolidinyl)-1-fluorospiro[chromeno[2,3-c]pyridine-5,4′-[1,3]oxazol]-7-yl)benzonitrile] | 0.2 | – | 12
Cn1cc(-c2ccc3c(c2)[C@@]2(COC(N)=N2)c2cc(OCC4(C)COC4)c(F)cc2O3)cn1 [Example 332, (4S)-3′-fluoro-2′-((3-methyl-3-oxetanyl)methoxy)-7′-(1-methyl-1H-pyrazol-4-yl)spiro[1,3-oxazole-4,9′-xanthen]-2-amine] | 545 | 490 | –
COc1cc2c(c(F)c1F)Oc1ccc(-c3cccnc3F)cc1[C@@]21COC(N)=N1 [Example 1005, (4S)-3′,4′-difluoro-7′-(2-fluoro-3-pyridinyl)-2′-methoxyspiro[1,3-oxazole-4,9′-xanthen]-2-amine] | 5.8 | 1000 | –
